Key:
[1] = compound: Cn1cnc2c(F)c(Nc3ccc(Br)cc3Cl)c(C(=O)NOCCO)cc21 [Selumetinib]; conditions: max 10 µM
Procedure, shortened: (§1)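 Viability was measured with CellTiter-Glo 2.0 luminescence after 72 hours of dosing at a final DMSO of typically 0.2%, and scaled between blank-well and DMSO-well means. Beforehand, cancer cell lines sat 24 hours at 37°C and 5% CO2 in 1536-well plates in 7.5 μl DMEM/F12 or RPMI with 10% FBS. A non-linear mixed effects model fitted two-parameter logistic curves to the dose responses. The single-agent IC50 comes from these fits.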

[2] = compound: CCc1c2c(nc3ccc(O)cc13)-c1cc3c(c(=O)n1C2)COC(=O)[C@]3(O)CC [SN-38]; conditions: max 0.3 µM
Procedure, shortened: as §1

[3] = compound: CN(CC[C@H](CSC1=CC=CC=C1)NC2=C(C=C(C=C2)S(=O)(=O)NC(=O)C3=CC=C(C=C3)N4CCC(CC4)[C@H](C5=CC=CC=C5C6=CC=C(C=C6)Cl)O)S(=O)(=O)C(F)(F)F)CCO [AZD4320]; conditions: max 1 µM
Procedure, shortened: as §1

[4] = compound: Cc1cc2ncnn2cc1Nc1ncc2c(n1)n(C1CCOCC1)c(=O)n2C [AZD7648]; conditions: max 10 µM
Procedure, shortened: as §1

[5] = compound: CC(=O)c1c(C)c2cnc(Nc3ccc(N4CCNCC4)cn3)nc2n(C2CCCC2)c1=O [Palbociclib]; conditions: max 10 µM
Procedure, shortened: as §1

[6] = compound: CS(=O)(=O)CCNCc1ccc(-c2ccc3ncnc(Nc4ccc(OCc5cccc(F)c5)c(Cl)c4)c3c2)o1 [Lapatinib]; conditions: max 10 µM
Procedure, shortened: as §1

[7] = compound: CN(C)CCCOc1ccc(-c2ccc3ncc4c(c3c2)n(C2CCOCC2)c(=O)n4C)cn1 [AZD0156]
Procedure, shortened: as §1

[8] = compound: CC(C)n1c(=O)n(C)c2cnc3cc(F)c(-c4ccc(OCCCN5CCCCC5)nc4)cc3c21 [AZD1390]; conditions: max 0.3 µM
Procedure, shortened: as §1

[9] = compound: C[C@@H]1COCCN1C2=NC(=NC(=C2)C3(CC3)[S@](=N)(=O)C)C4=C5C=CNC5=NC=C4 [AZD6738]; conditions: max 10 µM
Procedure, shortened: as §1

[10] = compound: COc1cccc(OCCCN)c1-c1cc(Nc2cnc(C#N)cn2)n[nH]1 [Prexasertib]; conditions: max 1 µM
Procedure, shortened: as §1

[11] = compound: CC1=C(C(=CC=C1)Cl)NC(=O)C2=CN=C(S2)NC3=CC(=NC(=N3)C)N4CCN(CC4)CCO [Dasatinib]; conditions: max 2 µM
Procedure, shortened: as §1

[12] = compound: CCN(CCO)CCCOc1ccc2c(Nc3cc(CC(=O)Nc4cccc(F)c4)[nH]n3)ncnc2c1 [AZD2811]; conditions: max 1 µM
Procedure, shortened: as §1

[13] = compound: COc1cc(Nc2ncc3c(n2)-c2ccc(Cl)cc2C(c2c(F)cccc2OC)=NC3)ccc1C(=O)O [Alisertib]; conditions: max 10 µM
Procedure, shortened: as §1

[14] = compound: C1CN(CCC1(C(=O)N[C@@H](CCO)C2=CC=C(C=C2)Cl)N)C3=NC=NC4=C3C=CN4 [Capivasertib]; conditions: max 10 µM
Procedure, shortened: as §1

[15] = compound: COc1nnc2ccc(N3CCC(c4ccc(OCCN5CCN(C)C(=O)[C@H]5C)cc4)CC3)nn12 [AZD5153]; conditions: max 1 µM
Procedure, shortened: as §1

[16] = compound: CC1(C)CCC(CN2CCN(c3ccc(C(=O)NS(=O)(=O)c4ccc(NCC5CCOCC5)c([N+](=O)[O-])c4)c(Oc4cnc5[nH]ccc5c4)c3)CC2)=C(c2ccc(Cl)cc2)C1 [Venetoclax]; conditions: max 1 µM
Procedure, shortened: as §1

[17] = compound: COc1cc2ncnc(Nc3ccc(F)c(Cl)c3)c2cc1OCCCN1CCOCC1 [Gefitinib]; conditions: max 10 µM
Procedure, shortened: as §1

[18] = compound: CC1=CN2[C@@H](C1)C=NC3=CC(=C(C=C3C2=O)OC)OCCCCCOC4=C(C=C5C(=C4)N=C[C@@H]6CC(=CN6C5=O)C)OC [SG3199]; conditions: max 0.001 µM
Procedure, shortened: as §1

[19] = compound: C[C@@H](c1ccc2nccn2c1)n1nnc2ncc(-c3cnn(C)c3)nc21 [Savolitinib]; conditions: max 1 µM
Procedure, shortened: as §1

[20] = compound: C=CCn1c(=O)c2cnc(Nc3ccc(N4CCN(C)CC4)cc3)nc2n1-c1cccc(C(C)(C)O)n1 [AZD1775]
Procedure, shortened: as §1

[21] = compound: Cc1c2c(nn1C)CSCc1cc(n(C)n1)CSc1cc(c3ccccc3c1)OCCCc1c(C(=O)O)n(C)c3c-2c(Cl)ccc13 [AZD5991]; conditions: max 1 µM
Procedure, shortened: as §1

[22] = compound: C[C@@H](Oc1cc(-c2cnn(C3CCNCC3)c2)cnc1N)c1c(Cl)ccc(F)c1Cl [Crizotinib]; conditions: max 10 µM
Procedure, shortened: as §1

[23] = compound: C[C@@H](Nc1cc(F)cc(F)c1)c1cc(C(=O)N(C)C)cc2c(=O)cc(N3CCOCC3)oc12 [AZD8186]; conditions: max 3 µM
Procedure, shortened: as §1

[24] = compound: CC(=O)Nc1cccc(-n2c(=O)n(C3CC3)c(=O)c3c(Nc4ccc(I)cc4F)n(C)c(=O)c(C)c32)c1 [Trametinib]; conditions: max 1 µM
Procedure, shortened: as §1

[25] = compound: Cc1nc(-c2cn3c(n2)-c2ccc(-c4cnn(C(C)(C)C(N)=O)c4)cc2OCC3)n(C(C)C)n1 [Taselisib]; conditions: max 10 µM
Procedure, shortened: as §1

[26] = compound: O=C(c1cc(Cc2n[nH]c(=O)c3ccccc23)ccc1F)N1CCN(C(=O)C2CC2)CC1 [Olaparib]
Procedure, shortened: as §1

[27] = compound: COc1cccc2c1C(=O)c1c(O)c3c(c(O)c1C2=O)C[C@@](O)(C(=O)CO)C[C@@H]3O[C@H]1C[C@H](N)[C@H](O)[C@H](C)O1 [Doxorubicin]; conditions: max 1 µM
Procedure, shortened: as §1

Cell Line | IC50, cell viability 72 h [1] [µM] | IC50, cell viability 72 h [2] [µM] | IC50, cell viability 72 h [3] [µM] | IC50, cell viability 72 h [4] [µM] | IC50, cell viability 72 h [5] [µM] | IC50, cell viability 72 h [6] [µM] | IC50, cell viability 72 h ([7]; max 3 µM) [µM] | IC50, cell viability 72 h [8] [µM] | IC50, cell viability 72 h [9] [µM] | IC50, cell viability 72 h [10] [µM] | IC50, cell viability 72 h [11] [µM] | IC50, cell viability 72 h [12] [µM] | IC50, cell viability 72 h [13] [µM] | IC50, cell viability 72 h [14] [µM] | IC50, cell viability 72 h [15] [µM] | IC50, cell viability 72 h [16] [µM] | IC50, cell viability 72 h [17] [µM] | IC50, cell viability 72 h [18] [µM] | IC50, cell viability 72 h [19] [µM] | IC50, cell viability 72 h ([20]; max 3 µM) [µM] | IC50, cell viability 72 h [21] [µM] | IC50, cell viability 72 h [22] [µM] | IC50, cell viability 72 h [23] [µM] | IC50, cell viability 72 h [24] [µM] | IC50, cell viability 72 h [25] [µM] | IC50, cell viability 72 h ([26]; max 10 µM) [µM] | IC50, cell viability 72 h [27] [µM] | IC50, cell viability 72 h ([7]; max 1 µM) [µM] | IC50, cell viability 72 h ([20]; max 1 µM) [µM] | IC50, cell viability 72 h ([26]; max 3 µM) [µM]
EW-18 (Ewing's Sarcoma) | > 10 | 0.106 | 0.0454 | > 10 | > 10 | > 10 | > 3 | > 0.3 | 3.99 | 0.0432 | > 2 | 0.131 | 0.853 | 2.44 | 0.376 | > 1 | > 10 | > 0.001 | > 1 | 0.359 | 0.06 | 1.85 | > 3 | > 1 | 1.24 | > 10 | > 1 |  |  | 
EMC-BAC-2 (Non-Small Cell Lung Carcinoma) | > 10 | 0.169 | > 1 | > 10 | > 10 | > 10 | > 3 | > 0.3 | > 10 | > 1 | 0.995 | > 1 | 5.48 | > 10 | 0.22 | > 1 | > 10 | > 0.001 | > 1 | > 3 | 0.873 | > 10 | > 3 | 0.198 | 2.32 | > 10 | 0.959 |  |  | 
EBC-1 (Squamous Cell Lung Carcinoma) | 1.1 | 0.00358 | 0.585 | > 10 | > 10 | > 10 | > 3 | > 0.3 | > 10 | 0.596 | > 2 | > 1 | > 10 | > 10 | 0.0805 | > 1 | > 10 | > 0.001 | 0.00407 | 2.94 | > 1 | 0.059 | > 3 | 0.0239 | 5.25 | > 10 | > 1 |  |  | 
EW-13 (Ewing's Sarcoma) | > 10 | 0.00864 | 0.27 | > 10 | > 10 | > 10 |  | > 0.3 | > 10 | 0.829 | > 2 | > 1 | > 10 | > 10 | > 1 | > 1 | > 10 | > 0.001 | > 1 |  | > 1 | > 10 | > 3 | > 1 | > 10 | > 10 | 0.467 | > 1 | > 1 | 
HC-1 (Other Blood Carcinomas) | > 10 | 0.00453 | 0.793 | > 10 | 9.65 | > 10 | > 3 | > 0.3 | 4.32 | 0.00696 | 1.68 | 0.884 | 0.752 | > 10 | 0.858 | > 1 | > 10 | > 0.001 | > 1 | 0.187 | > 1 | > 10 | > 3 | > 1 | 2.64 | > 10 | 0.151 |  |  | 
KP-2 (Pancreatic Carcinoma) | 8.02 | > 0.3 | 0.238 | > 10 | > 10 | > 10 | > 3 | > 0.3 | > 10 | 0.867 | > 2 | > 1 | > 10 | > 10 | > 1 | > 1 | > 10 | > 0.001 | > 1 | > 3 | > 1 | > 10 | > 3 | 0.778 | > 10 | > 10 | > 1 |  |  | 
U-87-MG (Glioblastoma) | > 10 | 0.0405 | > 1 | > 10 | > 10 | > 10 | > 3 | > 0.3 | > 10 | > 1 | > 2 | > 1 | > 10 | > 10 | > 1 | > 1 | > 10 |  | > 1 | > 3 | > 1 | > 10 | 2.45 | > 1 | 2.45 |  |  |  |  | > 3
RPMI-7951 (Melanoma) | > 10 | 0.0158 | > 1 | > 10 | > 10 | > 10 | > 3 | > 0.3 | 2.25 | 0.0194 | 0.13 | > 1 | 2.14 | 3.38 | 0.63 | > 1 | > 10 | > 0.001 | > 1 | 0.489 | 0.488 | 5.75 | 2.73 | 0.136 | 2.35 | > 10 | 0.173 |  |  | 

From the supplement of paper PMC11061612
